# Where no end group is shown, it is not given here. fluorescent dye = not defined here
# Legend:
# B16F1 melanomas = assay: CREKA peptide homing to B16F1 melanomas in fibrinogen null mice and normal littermates; format: in vivo; conditions: intravenous injection
# Experimental: Fluorescein-conjugated CREKA peptide (200 μg per mouse) was injected into mice bearing syngeneic B16 melanoma tumors. Representative microscopic fields are shown to illustrate homing of fluorescein-CREKA to fibrin-like structures in tumors in wild type mice (A, arrow) and lack of homing in fibrinogen null mice (B). […] (D) Dextran-coated iron oxide nanoparticles conjugated with fluorescein-CREKA bind to clotted plasma proteins, and the binding is inhibited by free CREKA peptide. […] Magnification: A-B, 200×; D, 600×.
# Tumors contain a meshwork of clotted plasma proteins in the tumor stroma and the walls of vessels, but no such meshwork is detectable in normal tissues (Dvorak 1985; Abe 1999; Pilch 2006). The mesh-like pattern produced by the CREKA peptide in tumors prompted the study of whether clotted plasma proteins can be the target of this peptide. The peptide was tested in fibrinogen knockout mice, which lack the fibrin meshwork in their tumors. […] Its structure makes it an attractive peptide to use in nanoparticle targeting because, unlike other clot-binding peptides, which are cyclic 10 amino-acid peptides (Pilch 2006), CREKA is linear and contains only 5 amino acids. Moreover, the sulfhydryl group of the single cysteine residue is not required to provide binding activity and can be used to couple the peptide to other moieties. […]
# mouse plasma clots = assay: Nanoparticle binding to mouse plasma clots in vitro
# Experimental: (§1) Phage binding to clotted plasma proteins was determined as described (Pilch 2006). CREKA-SPIO and control SPIO were added to freshly formed plasma clots in the presence or absence of free CREKA peptide. After 10 min incubation, the clots were washed 4 times in PBS, transferred to a new tube and digested in 100 μl concentrated nitric acid. The digested material was diluted in 2 ml distilled water and the iron concentration was determined using inductively coupled plasma-optical emission spectroscopy (ICP-OES, PerkinElmer, Norwalk, Conn.).
# human plasma clots = assay: Nanoparticle binding to human plasma clots in vitro
# Experimental: as §1
# [1] = system: MDA-MB-435 human breast cancer xenografts; assay: Tumor homing of intravenously injected fluorescent CREKA peptide in MDA-MB-435 xenograft mice; format: in vivo
# Experimental: (§2) (A). Balb/c nude mice bearing MDA-MB-435 human breast cancer xenograft tumors or transgenic MMTV PyMT mice with breast tumors were intravenously injected with 0.1 mg of fluorescein-CREKA. The animals were sacrificed by perfusion 24 hours post-injection and tissue sections were examined by fluorescent microscopy. Right panel, control organs of MDA-MB 435 tumor mice. Magnification 200×. (B). Whole animal imaging of MDA-MB-435 tumor mouse injected 6 hours earlier with 30 μg of Alexa Fluor 647-labeled CREKA. Maestro imaging system (Cambridge Research Inc., Woburn, Mass.) was used to acquire and process the image. The arrow points to the tumor and the arrowhead to the urinary bladder.
# (§3) A tumor-homing peptide was used to construct targeted nanoparticles. […] The most frequently represented peptide sequence in the selected phage preparation was CREKA (cys-arg-glu-lys-ala; SEQ ID NO:1). The CREKA peptide was synthesized with a fluorescent dye attached to the N-terminus and the in vivo distribution of the peptide was studied in tumor-bearing mice. […] The peptide formed a distinct meshwork in the tumor stroma (FIG. 5), and it also highlighted the blood vessels in the tumors.
# In vivo screening of a peptide library with the general structure of CX7C (SEQ ID NO: 4), where C is cysteine and X is any amino acid, was carried out as described (Oh 2004) using 65- to 75-day-old transgenic MMTV PyMT mice (Hutchinson 2000). These mice express the polyoma virus middle T antigen (MT) under the transcriptional control of the mouse mammary tumor virus (MMTV), leading to the induction of multi-focal mammary tumors in 100% of carriers. MDA-MB-435 tumors in nude mice and peptide synthesis have been described (Laakkonen 2002; Laakkonen 2004). B16F1 murine melanoma tumors were grown in fibrinogen null mice (Suh 1995) and their normal littermates and used when they reached 0.5-1 cm in size (Pilch 2006).
# PyMT tumors = assay: Tumor homing of intravenously injected fluorescent CREKA peptide in MMTV-PyMT mice; format: in vivo; conditions: intravenous injection; minutes to hours after the injection; fluorescent dye at N-terminus
# Experimental: as §2
# as §3, with “tumors. […]” for “tumors.”
substance,measurement,setting,value
"cys-arg-glu-lys-ala ({fluorescent dye}-CREKA; reading uncertain; also: dye not identified, printed as cys-arg-glu-lys-ala) [CREKA peptide, studied in vivo with a fluorescent dye attached to the N-terminus]",peptide accumulation in tumors,B16F1 melanomas; fibrinogen null mice,failed to accumulate
same,peptide accumulation in tumors,B16F1 melanomas; normal littermates of the null mice,formed a brightly fluorescent meshwork
same,effect of free peptide on CREKA-SPIO binding to plasma clots,mouse plasma clots,inhibited
same,effect of free peptide on CREKA-SPIO binding to plasma clots,human plasma clots,inhibited
same,peptide detection in tumors,"[1]; intravenous injection, minutes to hours after the injection, fluorescent dye at N-terminus",readily detectable
same,peptide detection in normal tissues,"[1]; intravenous injection, tumor-bearing mice",essentially undetectable
same,"whole body imaging, peptide accumulation","[1]; peptide labeled with Alexa 647, 6 hours after injection of 30 μg","peptide accumulation in the breast cancer xenografts, and in the bladder"
same,peptide detection in tumors,PyMT tumors,readily detectable
